System: PD-L1 in C33A cells
Test: Western blotting of PD-L1 level in C33A cells
Type: cell-based, human
Conditions: 4 h treatment, mean of 3 independent experiments, read-out: IC50 of PD-L1 decrease
Procedure: C33A and HeLa cells were plated in 6-well plates and treated with the stapled peptide at the indicated concentrations for the specified time, followed by lysis in RIPA buffer containing protease inhibitor. Protein samples were prepared using a BCA Protein Assay Kit (Beyotime). A total of 50 µg of protein were added per lane, separated by 10% SDS-PAGE, and subsequently transferred onto polyvinylidene fluoride (PVDF) membrane. The membrane was blocked with 5% skimmed milk for 2 h at room temperature. Primary antibodies including anti-PD-L1 (Abcam, ab213524) and anti-GAPDH (Abcam, ab9485) antibodies were diluted in primary antibody dilution buffer (Biosharp) and incubated with PVDF membrane at 4°C overnight. Next, the membrane was incubated with goat anti-mouse/anti-rabbit secondary antibodies (Proteintech, SA00001-1, SA00001-2) at room temperature for 1 h. After washing with TBST thrice for 5 min each, the proteins were detected using enhanced chemiluminescence (ECL) reagents (Vazyme) and a ChemiDoc XRS imaging system (Bio-Rad Laboratories).

## Cc1c(COc2ccc(CN3CCCCC3C(=O)O)cc2Br)cccc1-c1ccccc1 (stereo not shown) [BMS-8]
  IC50: 7.79 µM

— PMC10262918, “Stapled peptide PROTAC induced significantly greater anti-PD-L1 effects than inhibitor in human cervical cancer cells” (Frontiers in Immunology, 2023)
